Data from patent US9107830B2, “Inhibitors of crystallization in a solid dispersion” (ABBVIE, INC., priority 1999, dated 2015).
“Also recorded” adds a separate entry of the source.

Key:
[1] = X-ray powder diffraction of freshly prepared solid dispersions (physical form of drug in matrix); type: physicochemical
Procedure: (§1) An X-ray powder diffraction (XPD) pattern was obtained with a Scintag® XDS 2000 θ/θ diffraction system equipped with a 2 kW normal focus X-ray tube and a liquid nitrogen cooled germanium solid state detector.
The samples were prepared by dissolving ABT-538 in a small volume of 200 proof ethanol in a 250 ml round bottom flask. The flask was vortexed and then placed in a water bath maintained at 75° C. The PEG 8000 was added to the hot alcohol solution with continual swirling until the PEG melted. The flask was then attached to a rotary evaporator, immersed in the water bath (75° C.) under vacuum for 15 minutes to remove the ethanol. After the majority of ethanol had evaporated, the flask was immersed in an ice bath for 15 minutes. The contents of the flask were then vacuum dried at room temperature overnight to remove residual alcohol. The dispersion was removed from the flask, gently ground, and sized to 40-100 mesh size. The drug loads used for these dispersions were 10, 20 and 30% w/w.
The solid dispersion of 30% ABT-538 in 95:5 PEG8000:PVP was prepared by dissolving the ABT-538 and PVP 17 PF in a small volume of 200 proof ethanol in a 250 ml round bottom flask. The remainder of the process was as described above. A 30% ABT-538 dispersion in 85:15 PEG8000:PVP was also prepared similarly as were dispersions of 10 or 20% PVP 17 PF in PEG 8000 without drug.
(§2) Both fenofibrate and PEG 8000 were sized to 40-100 mesh prior to mixing with a spatula on weighing paper. The mixture was then added to a 25 ml beaker and heated to 85° C. in a water bath until the all the material had melted. The molten solution was then poured onto a chilled X-ray sample holder to rapidly solidify the solution. The solid sample was immediately used to monitor the crystallization rate via X-ray powder diffraction.
Fenofibrate (40-100 mesh) was added to the 90:10 PEG 8000:PVP control dispersion (see above) which was also sized to 40-100 mesh and mixed with spatula on a piece of weighing paper. The mixture was then processed as described above for the 15% fenofibrate dispersion in PEG 8000.
Both griseofulvin and PEG 8000 were sized to 40-100 mesh prior to mixing on a weighing paper with a spatula. The sample was then added to an 4 ml stainless steel vessel which was sealed under a N2 atmosphere. The vessel was then immersed into an oil bath maintained at 180° C. […]
A similar plot is shown in FIG. 2 with PVP incorporated into the matrix. […] Crystallization kinetics were determined by heating the samples to 85° C., holding them isothermally for predetermined times followed by heating through the melting transition temperature of ABT-538. The heats of fusion were determined and ratioed against the heat of fusion of the drug melting in the physical mixture, giving the fraction crystallized. […]

[2] = XPD monitoring for crystalline drug in samples held at 50° C.; type: physicochemical
Procedure: An X-ray powder diffraction (XPD) pattern was obtained with a Scintag® XDS 2000 θ/θ diffraction system equipped with a 2 kW normal focus X-ray tube and a liquid nitrogen cooled germanium solid state detector. An additional study was performed with a dispersion containing 15% PVP. The samples were held at 50° C. (above the Tg of ABT-538) and X-ray diffraction patterns were measured over time to monitor for the appearance of crystalline ABT-538.

[3] = DSC crystallization kinetics, isothermal hold at 85° C.; type: physicochemical; conditions: PVP in matrix versus PEG
Procedure: DSC measurements were made using a Mettler DSC 30 unit. Samples (4-7 mg) were sealed in standard 40 μl aluminum crucibles with a single hole punched in the lids. An empty crucible of the same type was used as a reference.
A similar plot is shown in FIG. 2 with PVP incorporated into the matrix. […] A similar plot is seen in FIG. 4 for the PEG:PVP dispersion. The endotherm associated with drug melting can clearly be discerned from the other components. Thus, it is possible to follow the kinetics of ABT-538 crystallization via DSC measurements. Crystallization kinetics were determined by heating the samples to 85° C., holding them isothermally for predetermined times followed by heating through the melting transition temperature of ABT-538. The heats of fusion were determined and ratioed against the heat of fusion of the drug melting in the physical mixture, giving the fraction crystallized.

[4] = Isothermal calorimetry (TAM) of recrystallization at 40° C.; type: physicochemical
Procedure: The recrystallization reactions of 30% ABT-538 in PEG or PEG:PVP (95:5) solid dispersions were monitored via isothermal calorimetry (Thermometric 2277 Calorimeter) at 40° C. Since crystallization is an exothermic process, a positive power output indicates crystallization. The magnitude of the power output at any time is proportional to the rate of crystallization. XPD was used to confirm crystallization.
The crystallization rate was also followed via the heat associated with crystallization of ABT-538 using a isothermal calorimetry. The shapes and magnitudes of the crystallization peaks in FIG. 6 indicate that ABT-538 crystallizes more readily in the PEG matrix as compared to the PEG:PVP matrix. This stabilizing effect of PVP is also reflected in the times required for complete crystallization (time to reach baseline) which were <10 hours for PEG and >30 hours for PEG:PVP (95:5).

[5] = Aungst et al., Int. J. Pharm. 156, 79 (1997); cited from earlier work
[6] = XPD rate of crystallization upon storage at 25° C.; type: physicochemical
Procedure: as §1, §2
The figure illustrates that the fenofibrate is X-ray-amorphous within the matrix. Again, the fenofibrate is amorphous. Upon storage at 25° C., the fenofibrate begins to crystallize in the PEG 8000 matrix within 1 hour (FIG. 10). Additional crystallization follows up to 12 hours, when the experiment was terminated.
Similar XPD patterns for the griseofulvin dispersion in PEG 8000 and 80:20 PEG 8000:PVP matrices are shown in FIGS. 12 and 13, respectively. In both instances, amorphous griseofulvin is isolated within the respective matrices. […] However, in the presence of PVP (FIG. 15), crystallization is not observed even after 15 hours under the same conditions.

[7] = PEG 8000:PVP matrix, 30% ABT-538, 15% fenofibrate (90:10) or 15% griseofulvin (80:20)
[8] = PEG 8000 matrix, 30% ABT-538, 15% fenofibrate or 15% griseofulvin

time at which crystalline drug is detected (XPD) ([2]; PEG8000 alone, detected at this time and before)	time held without crystalline ABT-538 present (XPD) ([2]; dispersion containing 15% PVP)	effect of PVP within the matrix on crystallization rate (percent crystallized from heat of fusion) [3]	effect of PVP within the matrix on crystallization rate (percent crystallized from heat of fusion) ([3]; listed as ritonavir)	time required for complete crystallization (time to reach baseline) ([4]; 30% ABT-538 in PEG solid dispersion)	time required for complete crystallization (time to reach baseline) ([4]; 30% ABT-538 in PEG:PVP (95:5) solid dispersion)	time at which drug begins to crystallize (XPD) ([6]; 15% drug in PEG 8000 matrix, storage at 25° C.)	time without crystallization observed (XPD) ([6]; 15% griseofulvin in 80:20 PEG 8000:PVP, 25° C.)	SMILES	physical form of drug in the solid dispersion by XPD [1, 7]	physical form of drug in the solid dispersion by XPD [1, 8]	effect of PEG solid dispersion formulation on bioavailability [5]
≤ 233 h	> 272 h	suppresses the crystallization rate	slower	< 10 h	> 30 h			CC(C)c1nc(CN(C)C(=O)NC(C(=O)NC(Cc2ccccc2)CC(O)C(Cc2ccccc2)NC(=O)OCc2cncs2)C(C)C)cs1 [ABT-538, (2S,3S,5S)-5-(N—(N—((N-methyl-N-((2-isopropyl-4-thiazolyl)-methyl)amino)carbonyl)-L-valinyl)amino-2-(N-((5-thiazolyl)methoxy-carbonyl)-amino)-1,6-diphenyl-3-hydroxyhexane]	Amorphous; also recorded: not crystalline	Amorphous; also recorded: not crystalline	
								O=C1N(Cc2ccc(CO)cc2)[C@H](Cc2ccccc2)[C@H](O)[C@@H](O)[C@@H](Cc2ccccc2)N1Cc1ccc(CO)cc1 [DMP 323]			unable to improve the bioavailability
						one	> 15 h	COC1=CC(=O)C[C@@H](C)[C@]12Oc1c(Cl)c(OC)cc(OC)c1C2=O [griseofulvin]	amorphous	amorphous	
